The source of these data is ChEMBL document CHEMBL1148616, “Synthesis and structure-activity relationships of novel poly(ADP-ribose) polymerase-1 inhibitors” (Bioorg Med Chem Lett, 2006).

SMILES strings stand for the structures.

The target in the assay is Poly [ADP-ribose] polymerase 1 (Homo sapiens, UniProt P09874).
Sequence of Poly [ADP-ribose] polymerase 1 (P09874 whole entry): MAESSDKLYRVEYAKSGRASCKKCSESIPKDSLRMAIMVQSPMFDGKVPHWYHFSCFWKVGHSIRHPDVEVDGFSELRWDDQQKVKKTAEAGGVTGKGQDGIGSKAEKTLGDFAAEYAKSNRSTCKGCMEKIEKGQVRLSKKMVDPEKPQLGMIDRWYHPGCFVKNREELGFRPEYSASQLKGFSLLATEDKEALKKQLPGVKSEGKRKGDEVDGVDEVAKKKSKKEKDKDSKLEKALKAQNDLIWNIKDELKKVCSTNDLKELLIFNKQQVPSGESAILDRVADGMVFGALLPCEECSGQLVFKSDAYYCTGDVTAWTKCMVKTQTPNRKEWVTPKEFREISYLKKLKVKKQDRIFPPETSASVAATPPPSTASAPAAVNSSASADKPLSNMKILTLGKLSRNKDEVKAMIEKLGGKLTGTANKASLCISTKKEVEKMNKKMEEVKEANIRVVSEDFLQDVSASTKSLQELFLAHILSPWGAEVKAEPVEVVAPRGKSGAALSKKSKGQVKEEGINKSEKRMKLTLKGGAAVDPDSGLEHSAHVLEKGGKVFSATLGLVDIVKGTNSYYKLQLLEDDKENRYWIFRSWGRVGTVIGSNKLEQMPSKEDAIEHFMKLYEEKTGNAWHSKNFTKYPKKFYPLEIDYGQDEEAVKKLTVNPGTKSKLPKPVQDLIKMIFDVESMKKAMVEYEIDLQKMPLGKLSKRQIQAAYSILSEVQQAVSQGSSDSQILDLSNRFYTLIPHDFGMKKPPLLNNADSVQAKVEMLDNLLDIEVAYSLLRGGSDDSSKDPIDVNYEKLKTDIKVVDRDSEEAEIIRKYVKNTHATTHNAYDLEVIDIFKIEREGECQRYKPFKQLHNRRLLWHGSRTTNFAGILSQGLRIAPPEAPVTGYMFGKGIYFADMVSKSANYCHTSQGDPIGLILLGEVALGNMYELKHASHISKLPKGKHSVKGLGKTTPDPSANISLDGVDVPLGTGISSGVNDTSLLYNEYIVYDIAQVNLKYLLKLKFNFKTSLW
Description: Inhibitory activity against human PARP1 expressed in PC12 cells
What is called IC50 is the midpoint of a concentration-inhibition curve. The low end stands for greater potency, the high end for weaker potency. Consider `O=C1NC(=O)c2c1c1ccccc1c1[nH]c3ccccc3c21`, for which the IC50 is above 10 µM.
The value for `Nc1ccc2c3c(cccc13)C(=O)NC2=O` was 0.026 µM; that for `O=C1NC(=O)c2c1c1c(c3oc4ccccc4c23)CCC1` was above 10 µM; that for `CCCc1c2c(c3c([nH]c4ccccc43)c1CC)C(=O)NC2=O` was above 10 µM.
The value for `O=C1NC(=O)c2c1c1c(c3sc4ccccc4c23)CCC1` was above 10 µM.
